Experimental data reported in BindingDB's records for doi:10.1021/jm9705723 (Wayne State University School of Medicine, 1998).
pIC50: −log10 of the molar value.

Experiments:
[1] = Inhibitory concentration against human immunodeficiency virus type 1 (HIV-1 strain IIIB RT) reverse transcriptase was determined by triplicate assay at low (~0.1 pfu/cell) multiplicity of […] (moi)
[2] = Inhibitory concentration against human immunodeficiency virus type 1 (HIV-1 strain IIIB RT) reverse transcriptase was determined by triplicate assay at high (~1 pfu/cell) multiplicity of […] (moi)

| SMILES | pIC50 [1] | pIC50 [2] |
| --- | --- | --- |
| Nc1nc2c(ncn2/C=C2\CC2CO)c(=O)[nH]1 (stereo unspecified) [2-Amino-9-[2-hydroxymethyl-cycloprop-(E)-ylidenemethyl]-1,9-dihydro-purin-6-one] | 5.72 | < 4.52 |
| Cc1cn([C@H]2C[C@H](N=[N+]=[N-])[C@@H](CO)O2)c(=O)[nH]c1=O [1-((2R,4S,5S)-4-Azido-5-hydroxymethyl-tetrahydro-furan-2-yl)-5-methyl-1H-pyrimidine-2,4-dione] | 8.52 | 7.77 |
| Nc1nc2c(ncn2/C=C2/CC2CO)c(=O)[nH]1 (stereo unspecified) [2-Amino-9-[2-hydroxymethyl-cycloprop-(Z)-ylidenemethyl]-1,9-dihydro-purin-6-one] | 5.96 | < 4.52 |

Next, values leading:

| pIC50 [1] | pIC50 [2] | SMILES |
| --- | --- | --- |
| < 4.00 |  | Nc1nc(Cl)c2ncn(/C=C3\CC3CO)c2n1 (stereo unspecified) [{2-[1-(2-Amino-6-chloro-purin-9-yl)-meth-(E)-ylidene]-cyclopropyl}-methanol] |
| 4.85 | < 4.00 | Nc1ncnc2c1ncn2/C=C1\CC1CO (stereo unspecified) [{2-[1-(6-Amino-purin-9-yl)-meth-(E)-ylidene]-cyclopropyl}-methanol] |
| 6.10 | 4.70 | Nc1ncnc2c1ncn2/C=C1/CC1CO (stereo unspecified) [[2-(6-Amino-purin-9-ylmethylene)-cyclopropyl]-methanol] |
